Key:
[1] = target: T1, purified recombinant human PAOh1/SMO (Homo sapiens, UniProt Q9NWM0); assay: Oxidase activity of purified recombinant PAOh1/SMO, luminol chemiluminescence; format: biochemical; conditions: for ability to serve as substrate (oxidation by purified PAOh1/SMO): 250 μM of compound; for inhibition of PAOh1/SMO activity, increasing concentrations: 250 μM spermine
T1 construct: A 1702 bp fragment of the PAOh1cDNA was produced by PCR; His tag (pET15b) (N); made in house; host or cells: Escherichia coli BL21(DE3)
T1 sequence (Q9NWM0 whole entry, the tested form may be a part): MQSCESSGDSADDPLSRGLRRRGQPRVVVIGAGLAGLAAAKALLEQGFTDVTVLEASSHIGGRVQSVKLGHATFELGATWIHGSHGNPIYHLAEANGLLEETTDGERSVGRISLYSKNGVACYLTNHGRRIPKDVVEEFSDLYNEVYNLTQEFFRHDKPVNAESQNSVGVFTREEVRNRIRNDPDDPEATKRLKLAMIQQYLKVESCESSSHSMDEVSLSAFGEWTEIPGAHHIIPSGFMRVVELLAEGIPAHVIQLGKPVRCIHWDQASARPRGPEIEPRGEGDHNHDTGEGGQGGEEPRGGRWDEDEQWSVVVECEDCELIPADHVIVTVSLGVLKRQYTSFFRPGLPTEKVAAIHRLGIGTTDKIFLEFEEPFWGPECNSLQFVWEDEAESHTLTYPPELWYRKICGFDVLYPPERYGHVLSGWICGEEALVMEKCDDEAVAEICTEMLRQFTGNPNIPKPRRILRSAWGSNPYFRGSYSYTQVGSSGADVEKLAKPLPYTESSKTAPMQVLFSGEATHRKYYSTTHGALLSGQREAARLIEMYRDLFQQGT
Method: Expression and Purification of PAOh1/SMO. The pET15b/PAOh1/SMO plasmid was used to transform the BL21(DE3) strain of Escherichia coli (Novagen) and transformed cells were selected on LB agar with 50 μg/ml ampicillin. The expression of PAOh1/SMO protein was induced in LB medium by the addition of 1 mM IPTG for 3 h at 37 ° C. Cell lysates were prepared under denaturing conditions with 8M urea and PAOh1/SMO protein was purified from the lysate by Ni-NTA resin according to the manufacturer's protocol (Qiagen, Valencia, Calif.). The resulting denatured protein was renatured in buffers containing decreasing concentrations of urea (5M urea, 4 h; 2.5M urea, 4 h; 1M urea, 12 h; and 0M urea, 12 h) and 50 mM Tris-HCl, pH 7.5, 250 mM NaCl, 0.1 mM EDTA, 1 mM DTT, and 0.2 μM flavin adenine dinucleotide (FAD).
Determination of PAO enzyme activity. PAO activity of the purified PAOh1/SMO was assayed using a modi.cation of the chemiluminesence analysis reported by Fernandez et al. and Rogers, et al.. Briefly, luminol-dependent chemiluminescence was determined using a Monolight 3010 luminometer with two reagent injectors. Luminol was prepared as a 100 mM stock solution in DMSO and diluted to 100 μM with H2O, immediately prior to use. Purified PAOh1/SMO was assayed in a 100 mM glycine buffer, pH 8.0, 5 ηmol luminol, 20 μg horseradish peroxidase, and the polyamine substrate as indicated. All reagents with the exception of the polyamine substrate were combined and incubated for 2 min at 37 ° C., then the tube was transferred to the luminometer, substrate was added, and the resulting chemiluminescence was integrated over 20 s. The integral values are calibrated against standards containing known concentrations of H2O2 and the activities are expressed as pmols H2O2/mg protein/min. Where indicated, inhibitors were added at the specified concentrations prior to the addition of substrate. Km and Vmax values for the purified enzyme with the indicated substrate were estimated using Lineweaver-Burk transformation of the Michaelis-Menten kinetic equation.

PAOh1/SMO = PAOh1/SMO activity in lysates of NCI A549 cells after analogue treatment; format: cell-based, human; conditions: for substrate of the inducible PAOh1/SMO activity: lysates of NCI A549 treated with 10 μM BENSpm or CPENSpm 24 h, 250 μM substrate; for induction of PAOh1/SMO activity: NCI A549, 24 h exposure to 10 μM of each analogue
Method: (§1) Cell Culture and Analysis of Growth Inhibition of Human Lung Cancer Cell Lines The non-small-cell cancer lines NCI A549 (adenocarcinoma), NCI H157 (squamous), NCI H727 (carcinoid), NCI H125 (adenocarcinoma) and U1752 (squamous), and the small-cell lung carcinoma lines NCI H82 and NCI H889 were cultured as we have previously described. Cells were treated for the times and with the concentrations of specific agents as indicated in the Results. For cell growth analysis in the presence of the PAOh1/SMO inhibitor MDL 72,527, the MTS dye reduction assay CellTiter 96 system from Promega was used according to the supplier's protocol. In these experiments, NCI A549 cells were seeded at 5×10^3 cells/well in a 96-well microtiter plate and treated for 96 h with 10 μM of the indicated analogue in the presence or absence of 250 μM MDL 72,527.
(§2) Total cellular RNA was extracted from the lung cancer cell lines using Trizol reagent (Invitrogen) according to the manufacturer's protocol. For Northern blotting, total RNA (20 lg) was separated on a denaturing 1.5% agarose gel containing 6% formaldehyde and transferred to Zetaprobe membrane (Bio-Rad). Random primer- labeled PAOh1 cDNA was used as probe to estimate PAOh1/SMO expression. Blots were stripped and reprobed with an 18S ribosomal cDNA to provide a loading control. Analysis of polyamine content, SSAT and PAOh1/SMO activity. Intracellular polyamine concentrations were determined using the precolumn dansylation labeling, reverse-phase high-pressure liquid chromatography method as described by Kabra et al. using 1,7-diaminoheptane as an internal standard. Polyamine concentrations are reported as nanomoles per milligram protein for each sample, where lysate protein content was measured by the method of Bradford. SSAT activity of cellular extracts was measured as previously described. […] The PAOh1/SMO assays were performed in the presence of 1.0 mM pargyline and 0.1 mM semicarbizide as inhibitors of monoamine oxidase (MAO) and diamine oxidase (DAO), respectively.

PAOh4 = target: T2, PAOh4 (Homo sapiens, UniProt Q9NWM0); assay: Kinetics of TnT-produced PAOh4 isoenzyme; format: biochemical; conditions: named compound as substrate
T2 construct: For PAO-isoform 4, the cDNA is 1825 bp long; the open reading frame encodes 532 amino acids; made in house; host or cells: Wheat Germ Extract-TnT coupled system (Promega), template pPAOh4 (pcDNA3.1), cDNA from HEK-293 mRNA
T2 sequence (Q9NWM0 1-532 isoform Q9NWM0-4): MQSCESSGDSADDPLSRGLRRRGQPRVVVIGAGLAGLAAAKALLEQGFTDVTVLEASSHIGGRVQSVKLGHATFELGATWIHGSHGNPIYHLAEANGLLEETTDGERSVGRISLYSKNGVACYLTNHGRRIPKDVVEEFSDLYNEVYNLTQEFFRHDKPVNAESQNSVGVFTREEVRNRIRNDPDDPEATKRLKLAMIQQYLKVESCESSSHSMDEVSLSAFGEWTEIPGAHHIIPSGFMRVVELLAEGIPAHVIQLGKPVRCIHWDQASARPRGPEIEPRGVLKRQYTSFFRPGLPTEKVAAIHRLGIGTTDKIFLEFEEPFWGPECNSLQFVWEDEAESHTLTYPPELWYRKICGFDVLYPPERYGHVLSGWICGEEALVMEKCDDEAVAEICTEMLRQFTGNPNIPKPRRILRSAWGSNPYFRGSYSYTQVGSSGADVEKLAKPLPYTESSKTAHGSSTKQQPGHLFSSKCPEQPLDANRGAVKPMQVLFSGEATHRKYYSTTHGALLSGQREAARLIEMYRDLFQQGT
Method: For PAO splice variant protein analysis, each cDNA construct, as well as the pcDNA3.1 empty vector, was linearized using NdeI. In vitro transcription and translation was subsequently performed using the Wheat Germ Extract-TnT coupled system from Promega (Madison, Wis., U.S.A.) according to the manufacturer's protocol. Reactions were performed in parallel, with one aliquot containing [^35S]methionine in the amino acid mixture for subsequent separation and quantification by SDS-PAGE. […] After drying, bands were visualized and quantified using phosphorimage analysis with Image Quant software from Molecular Dynamics (Sunnyvale, Calif., U.S.A.).
TnT products from the reactions using unlabelled substrates were used for PAO enzyme analysis by the method of Suzuki et al. Specifically, 10 μl of the TnT reaction mixture was used for each 600 μl of PAO assay sample (in duplicate, and in the presence of monoamine and diamine oxidase inhibitors, as previously described). Background oxidase activity in the Wheat Germ Extract-TnT reactions was determined for each substrate using the empty pcDNA3.1 vector. These values (always<0.05 pmol/min) were subtracted from the oxidase activity measured in TnT lysates produced from vectors containing the individual splice variants. To ensure linearity of the reaction (thereby determining the optimal incubation time after substrate addition), time courses were performed for each potential isoenzyme in the presence of 1 mM Spm (Sigma, St. Louis, Mo., U.S.A.).
Apparent kinetics were examined for each isoenzyme using TnT reaction products as described above with increasing concentrations of Spm, Spd (Sigma) or N^1-acetylspermine (N^1-AcSpm; Fluka). Apparent Km and Vmax values were determined using the Lineweaver-Burk transformation of the Michaelis-Menten equation. Values were adjusted for TnT reaction efficiency by SDS-PAGE quantfication of a [^35S]methionine-labelled aliquot of the TnT reaction mixture normalized for methionine content.

NCI A549 cells [2] = assay: MTS cell growth analysis of NCI A549 cells with or without MDL 72,527; format: cell-based, human
Method: as §1

human PAOh1 = target: T3, human PAOh1 (Homo sapiens, UniProt Q9NWM0); assay: PAO activity of in vitro TnT (wheat germ) produced PAOh1, fluorescent H2O2 assay; format: biochemical; conditions: 0.25 mM inhibitor, 250 μM spermine as substrate
T3 construct: made in house; host or cells: TnT-coupled wheat germ extract (Promega), template pPAOh1 (pcDNA3.1)
T3 sequence (Q9NWM0 whole entry): as the sequence (Q9NWM0 whole entry, the tested form may be a part) above
Method: In Vitro Transcription and Translation. In vitro transcription and translation reactions were performed with the TnT-coupled wheat germ extract system. Parallel reactions were prepared by adding an unlabeled amino acid mixture to one reaction and a [^35S]methionine containing amino acid mixture to the other, according to the supplied protocol. Vector pcDNA3.1 and pPAOh1 were linearized by SalI restriction and served as the templates. The labeled translation reactions products were separated by 10% SDS-PAGE, and radioactivity on the labeled PAO band was determined by Phosphor image analysis using Image Quant software (Molecular Dynamics, Sunnyvale, Calif.).
Determination of PAO Enzyme Activity. The cultured H157 cells with or without treatment of 10 μM N^1, N″-bis(ethyl)norspermine (BENSpm) were homogenized with a Dounce tissue homogenizer in ice-cold 0.083 M sodium borate buffer (pH 9.0). […] The enzyme activity was stopped by the addition of 2.0 ml of 0.1 M NaOH solution. The fluorescence intensity was measured with excitation at 323 nm and emission at 426 nm. […] Protein content of the cellular homogenate was determined using the Bio-Rad protein assay kit (Bio-Rad). […] For determination of PAO activity in the product of the unlabeled TnT reaction, 10 μl of TnT reaction were used in the place of the homogenate. […]

NCI A549 cells [3] = assay: Intracellular polyamine and analogue content of NCI A549 cells (HPLC); format: cell-based, human; conditions: NCI A549, 10 μM, 24 h
Description: as §2

SSAT = SSAT activity of NCI A549 cellular extracts; format: cell-based, human; conditions: NCI A549, 10 μM, 24 h; untreated 5 ± 0.1
Description: as §2

[4] = named compound as substrate, Lineweaver-Burk

| Km of PAOh4 (PAOh4) | inhibition of PAOh1/SMO activity, increasing concentrations [1] | SMILES | ability to serve as substrate (oxidation by purified PAOh1/SMO) [1] | substrate of the inducible PAOh1/SMO activity (PAOh1/SMO) | induction of PAOh1/SMO activity (PAOh1/SMO) | also measured |
| --- | --- | --- | --- | --- | --- | --- |
| nanomolar range | – | NCCCNCCCCNCCCN [spermine] | efficiently oxidize | only spermine was a substrate | – | – |
| nanomolar range | – | CC(=O)NCCCNCCCCNCCCN [N^1-acetylspermine] | less efficient | not significantly active | – | Km [1, 4]: 51 µM; Vmax of purified PAOh1/SMO [1, 4]: 0.251 μmol/mg protein/min |
| – | potent inhibitors | CCNCCCCNCCCCNCCCCNCCCCNC/C=C/CNCCCCNCCCCNCCCCNCCCCNCC [SL-11144] | none of the analogues examined were found to be oxidized | – | did not induce | potency relative to MDL 72,527 [1]: 100 times |
| – | – | CCNCCCNCCCNCCCNC[C@@H](C)CC [IPENSpm, (S)-N1-(2-methyl-1-butyl)-N^11-ethyl-4,8,diazaundecane] | none of the analogues examined were found to be oxidized | – | significant induction | – |
| – | – | C=C=CCNCCCCNCC=C=C [MDL 72,527, N^1,N^4-bis(2,3-butadienyl)-1,4-butanediamine] | – | – | – | IC50 [1]: ~10 µM; inhibition at 250 µM ([1]; read-out: inhibition of oxidation of spermine): > 95%; effect of the inhibitor alone on growth (NCI A549 cells [2]; NCI A549, 250 μM MDL 72,527): did not adversely affect the growth; basal oxidase activity in the presence of inhibitor (PAOh1/SMO; NCI A549 basal activity (4184 without inhibitor), 250 μM MDL 72,527): 4055 pmol/mg per hour; effect on the basal levels of oxidase activity (PAOh1/SMO; NCI A549 lysate, 250 μM MDL 72,527): did not significantly reduce; inhibition of the PAOh1/SMO activity induced by the analogues (PAOh1/SMO; NCI A549 lysate, 250 μM MDL 72,527 in the assay): significantly inhibited; part of the basal level of oxidase activity that is inhibited (PAOh1/SMO; basal (untreated) lung cancer cell lysate): less than 10%; inhibition of the human PAOh1 protein product (human PAOh1): effective in inhibiting |
| – | not found to profoundly inhibit | CCNCCCNCCCNCCCNCC1CCCCCC1 [CHENSpm, N^1-ethyl-N^11-(cycloheptyl) methyl-4,8,diazaundecane] | none of the analogues examined were found to be oxidized | – | significant induction | inhibition of PAOh1/SMO activity ([1]; at 10 μM): < 20% |
| – | potent inhibitors | CCNCCCCNCCCCNCCCCNCCCCNC/C=C\CNCCCCNCCCCNCCCCNCCCCNCC [SL-11150] | none of the analogues examined were found to be oxidized | – | did not induce | potency relative to MDL 72,527 [1]: 100 times |
| – | – | CCNCCCNCCCNCCCNCC1CC1 [CPENSpm, N^1-ethyl-N^11-(cyclopropyl) methyl-4,8,diazaundecane] | none of the analogues examined were found to be oxidized | – | significant induction | Polyamine: Putrescine (NCI A549 cells [3]; untreated 2.1 ± 0.7): <0.05 nmol/mg protein; Polyamine: Spermine (NCI A549 cells [3]; untreated 9.9 ± 1.2): 2.4 ± 0.4 nmol/mg protein; Polyamine: Spermidine (NCI A549 cells [3]; untreated 26.9 ± 1.2): 5.5 ± 0.2 nmol/mg protein; SSAT activity (SSAT): 1190 ± 287.9 pmol N^1-acetylspermidine/mg p; sensitivity of cell growth to analogue in the presence of the PAOh1/SMO inhibitor (NCI A549 cells [2]; NCI A549, 96 h, 10 μM analogue with 250 μM MDL 72,527): clear decrease in sensitivity; PAOh1/SMO activity (PAOh1/SMO; NCI A549, 10 μM, 24 h, untreated 6,390 ± 2,070): 14,300 ± 3,700 pmol H2O2/mg/h; dose-dependence of PAOh1/SMO activity (PAOh1/SMO; NCI A549, increasing concentrations, 24 h): continued to increase at concentrations up to 50 μM |

| SMILES | Km of PAOh4 (PAOh4) | inhibition of PAOh1/SMO activity, increasing concentrations [1] | ability to serve as substrate (oxidation by purified PAOh1/SMO) [1] | substrate of the inducible PAOh1/SMO activity (PAOh1/SMO) | induction of PAOh1/SMO activity (PAOh1/SMO) | also measured |
| --- | --- | --- | --- | --- | --- | --- |
| NCCCCNCCCN [spermidine] | nanomolar range | – | No PAOh1/SMO activity was observed | not significantly active | – | – |

From US20040229241A1, “Cloned mammalian polyamine oxidase” (priority 2001, published 2004)
